One assay concerns MDA-MB-231 cells. The assay is described as follows: MDA-MB-231 proliferation assay. The format is cell-based. The following applies: Homo sapiens, 72 hours, YO-PRO-1 readout. As for the experimental part:
MDA-MB-231 Proliferation Assay
MDA-MB-231 cells were cultivated in DMEM High Glucose (4.5 g/L) with L-Glutamine (BioConcept, cat. no. 1-26F03-I) supplemented with 1% Na-pyruvate (Sigma, cat. no. S8636), 1% Penicillin-Streptomycin (BioConcept, cat. no. 4-01F00H), and 10% FBS (Sigma, cat. no. F9665) using standard techniques. Cells were seeded in black, clear-bottom 384 well plates for tissue culture (Greiner Bio-One, cat. no. 781091) at a density of 750 cells per well in 20 μL medium and the plates were incubated overnight at 37° C. with 5% CO2 prior to treatment. Experimental compounds were serially diluted in DMSO to 200× the desired final concentrations. The solutions were then diluted 1:40 with culture medium and 5 μL aliquots were mixed into the wells containing the cells. The final concentration of DMSO was 0.5%. The plates were incubated for 72 hours and cell numbers were then measured using YO-PRO™-1 Iodide (ThermoFisher Scientific, cat. no. Y3603) essentially as recommended by the manufacturer. […] The plates were incubated at room temperature in the dark for 30 minutes. Fluorescence intensity signals were then measured on a Synergy 4 reader (BioTek) using 485/20 nm and 530/25 nm filters for the excitation and emission, respectively. Relative proliferation values were calculated by normalizing the raw data using DMSO-treated cells (100% proliferation) and the signals obtained from cells that were evaluated at the time of compound addition (0% proliferation). The concentration-response data were fitted to a sigmoidal 4-parameter logistic model with the maximum constrained to 100%.

A further assay has as its target T1, recombinant human CLK3 (Homo sapiens, UniProt P49761).
T1 construct: purchased Thermo Fisher Scientific PV3826
The assay is described as follows: CLK3 kinase assay (LANCE Ultra). In kind it is biochemical. The following applies: 0.5 nM CLK3, 300 μM ATP, 3 hours at 30° C. As for the experimental part:
CLK3 kinase activity was measured using the LANCE® Ultra technology (PerkinElmer) essentially as recommended by the supplier. Briefly, 2.5 μL of test sample at 4× the desired final concentration in 4% DMSO were dispensed into white, low volume, round bottom, 384 well plates (Corning, cat. no. 4512). 5 μL of a mixture containing recombinant human CLK3 (Thermo Fisher Scientific, cat. no. PV3826) and the labeled peptide substrate ULight™-CREBtide (PerkinElmer, cat. no. TRF0107) prepared in 1.33× kinase buffer (Thermo Fisher Scientific, cat. no. PV3189) were then added. Finally, the reactions were started by adding 2.5 μL of a 4× solution of ATP in kinase buffer. The plates were sealed with adhesive foils and incubated for 3 hours at 30° C. in the dark. The final concentrations of CLK3, ULight™—CREBtide, and ATP were 0.5 nM, 50 nM, and 300 μM, respectively. 5 μL of 40 mM EDTA were then added to terminate the reactions. The Eu-anti-phospho-CREB antibody (PerkinElmer, cat. no. TRF0200) diluted in LANCE® detection buffer (PerkinElmer, cat. no. CR97) was then added to a final concentration of 2 nM and the reactions were incubated for 1 hour at room temperature in the dark. The signals were measured using a Synergy 4 reader (BioTek) with a 320/80 nm filter for the excitation and 620/10 nm and 665/8 nm filters for the donor and acceptor emission, respectively. […] IC50 values were calculated by fitting the concentration-response data to a sigmoidal 4-parameter logistic model.
In general terms: In TR-FRET formats the signal depends on donor and acceptor labels being close together.

T1 sequence (P49761 whole entry): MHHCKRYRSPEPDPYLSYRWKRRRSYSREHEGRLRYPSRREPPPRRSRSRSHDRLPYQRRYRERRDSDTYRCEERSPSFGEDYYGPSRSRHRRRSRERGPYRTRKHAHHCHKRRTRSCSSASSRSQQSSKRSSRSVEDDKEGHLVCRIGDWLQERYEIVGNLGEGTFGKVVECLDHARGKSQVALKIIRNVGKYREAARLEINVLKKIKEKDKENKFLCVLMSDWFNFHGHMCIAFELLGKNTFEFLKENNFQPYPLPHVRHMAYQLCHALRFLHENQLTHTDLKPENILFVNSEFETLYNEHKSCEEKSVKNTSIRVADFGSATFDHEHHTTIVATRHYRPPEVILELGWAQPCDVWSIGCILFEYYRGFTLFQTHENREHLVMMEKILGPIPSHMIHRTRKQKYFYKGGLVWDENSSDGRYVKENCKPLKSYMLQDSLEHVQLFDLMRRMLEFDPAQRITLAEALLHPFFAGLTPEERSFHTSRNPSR

In the case of `CC1(C)/C(=N/OCCC#N)c2cc(Br)ccc2-c2ncnc(N)c21` [Example 81, 3-[(Z)-(4-amino-8-bromo-5,5-dimethyl-benzo[h]quinazolin-6-ylidene)amino]oxypropanenitrile], in the assay on MDA-MB-231 cells, the GI50 was greater than 2000 nM. Moreover, the IC50 at recombinant human CLK3 amounted to 15.8 nM.
In the same order, the values of `CO/N=C1/c2cc(O[C@H]3CC[C@H](N)CC3)ccc2-c2ncnc(N)c2C1(C)C` [Example 45, (6E)-8-(trans-4-aminocyclohexoxy)-6-methoxyimino-5,5-dimethyl-benzo[h]quinazolin-4-amine] are 1460 nM and 104 nM.
In the same order, the values of `Cc1noc(C)c1CO/N=C1\c2cc(O[C@H]3CC[C@H](N)CC3)ccc2-c2ncnc(N)c2C1(C)C` [Example 25, (6Z)-8-(trans-4-aminocyclohexoxy)-6-[(3,5-dimethylisoxazol-4-yl)methoxyimino]-5,5-dimethyl-benzo[h]quinazolin-4-amine] are 1600 nM and 151 nM.
As for `COc1ccc2c(c1)/C(=N\O[C@H]1CC[C@@H](N)CC1)C(C)(C)c1c(N)ncnc1-2` [Example 9, (6Z)-6-(cis-4-aminocyclohexoxy)imino-8-methoxy-5,5-dimethyl-benzo[h]quinazolin-4-amine], the GI50 with MDA-MB-231 cells was found to be 1050 nM. Moreover, at recombinant human CLK3, the IC50 came out at 90.2 nM.
The matching figures for `CC1(C)/C(=N/O)c2cc(Br)ccc2-c2ncnc(N)c21` [Example 84, (Z)-4-amino-8-bromo-5,5-dimethyl-benzo[h]quinazolin-6-one oxime]: greater than 2000 nM and 10.6 nM.
On to `CO/N=C1\c2cc(Br)ccc2-c2ncnc(N)c2C1(C)C` [Example 89, (6Z)-8-bromo-6-methoxyimino-5,5-dimethyl-benzo[h]quinazolin-4-amine], for which, on recombinant human CLK3, the 50% inhibitory concentration (IC50) worked out at 98.6 nM.
On to `CC1(C)/C(=N\O)c2cc(Br)ccc2-c2ncnc(N)c21` [Example 85, (E)-4-amino-8-bromo-5,5-dimethyl-benzo[h]quinazolin-6-one oxime], for which the GI50 in the assay with MDA-MB-231 cells is greater than 2000 nM. The IC50 on recombinant human CLK3 was 125 nM.
The matching figures for `CO/N=C1\c2cc(O[C@@H]3CC[C@@H](N)[C@@H](F)C3)ccc2-c2ncnc(N)c2C1(C)C` [Example 57, (6Z)-6-methoxyimino-5,5-dimethyl-8-[-(1R,3S,4R)-4-amino-3-fluoro-cyclohexoxy]benzo[h]quinazolin-4-amine]: 207 nM and 2.76 nM.
In the same order, the values of `CN1C[C@@H](CO/N=C2\c3cc(O[C@H]4CC[C@H](N)CC4)ccc3-c3ncnc(N)c3C2(C)C)OC1=O` [Example 56, (5S)-5-[[(Z)-[4-amino-8-(trans-4-aminocyclohexoxy)-5,5-dimethyl-benzo[h]quinazolin-6-ylidene]amino]oxymethyl]-3-methyl-oxazolidin-2-one] are 332 nM and less than 1.5 nM.
In the case of `COc1ccc2c(c1)/C(=N\OC[C@H]1CCN(C)C1)C(C)(C)c1c(N)ncnc1-2` [Example 71, (6Z)-8-methoxy-5,5-dimethyl-6-[[(3S)-1-methylpyrrolidin-3-yl]methoxyimino]benzo[h]quinazolin-4-amine], the IC50 at recombinant human CLK3 came out at 173 nM.
As to `CC1(C)/C(=N/OCCOC(F)(F)F)c2cc(O[C@H]3CC[C@@H](N)CC3)ccc2-c2ncnc(N)c21` [Example 105, (6Z)-8-(cis-4-aminocyclohexoxy)-5,5-dimethyl-6-[2-(trifluoromethoxy)ethoxyimino]benzo[h]quinazoline-4-amine], the GI50 with MDA-MB-231 cells was 82 nM.
On to `CCN(CC)CCCO/N=C1\c2cc(O[C@H]3CC[C@H](N)CC3)ccc2-c2ncnc(N)c2C1(C)C` [Example 17, (6Z)-8-(trans-4-aminocyclohexoxy)-6-[3-(diethylamino)propoxyimino]-5,5-dimethyl-benzo[h]quinazolin-4-amine], for which the IC50 on recombinant human CLK3 was 410 nM.
Consider `CO/N=C1\c2cc(OC)c(N)cc2-c2ncnc(N)c2C1(C)C` [Example 42, (6Z)-8-methoxy-6-methoxyimino-5,5-dimethyl-benzo[h]quinazoline-4,9-diamine], for which the GI50 in the assay with MDA-MB-231 cells is greater than 2000 nM.
Same read-out and setting: in the case of `CC1(C)/C(=N/OCCOc2ccccc2)c2cc(O[C@H]3CC[C@@H](N)CC3)ccc2-c2ncnc(N)c21` [Example 107, (6Z)-8-(cis-4-aminocyclohexoxy)-5,5-dimethyl-6-(2-phenoxyethoxyimino)benzo[h]quinazoline-4-amine] it was 319 nM.
With `COc1ccc2c(c1)/C(=N\OCC(N)=O)C(C)(C)c1c(N)ncnc1-2` [Example 7, 2-[(Z)-(4-amino-8-methoxy-5,5-dimethyl-benzo[h]quinazolin-6-ylidene)amino]oxyacetamide], on recombinant human CLK3, the IC50 is 115 nM.
On the same count and under the same terms, the same measure for `COc1ccc2c(c1)/C(=N\OC[C@H]1CC[C@H](N)CC1)C(C)(C)c1c(N)ncnc1-2` [Example 11, (6Z)-6-[(trans-4-aminocyclohexyl)methoxyimino]-8-methoxy-5,5-dimethyl-benzo[h]quinazolin-4-amine]: 437 nM.
For `C=CCO/N=C1\c2cc(O[C@H]3CC[C@H](N)CC3)ccc2-c2ncnc(N)c2C1(C)C` [Example 64, (6Z)-6-allyloxyimino-8-(trans-4-aminocyclohexoxy)-5,5-dimethyl-benzo[h]quinazolin-4-amine], in the assay on MDA-MB-231 cells, the GI50 was greater than 2000 nM.
On the same count and under the same terms, in the case of `CC1(C)/C(=N/OCCCc2cccnc2)c2cc(O[C@H]3CC[C@@H](N)CC3)ccc2-c2ncnc(N)c21` [Example 108, (6Z)-8-(cis-4-aminocyclohexoxy)-5,5-dimethyl-6-[3-(3-pyridyl)propoxyimino]benzo[h]quinazoline-4-amine] it was 942 nM.
Turning to `CO/N=C1\c2cc(O[C@H]3CC[C@@H](N)CC3)ccc2-c2ncnc(N)c2C1(C)C` [Example 54, (6Z)-8-(cis-4-aminocyclohexoxy)-6-methoxyimino-5,5-dimethyl-benzo[h]quinazolin-4-amine], the IC50 at recombinant human CLK3 amounted to 1.9 nM.
As to `COc1ccc2c(c1)/C(=N\OC[C@@H]1CCNC1)C(C)(C)c1c(N)ncnc1-2` [Example 62, (6Z)-8-methoxy-5,5-dimethyl-6-[[(3R)-pyrrolidin-3-yl]methoxyimino]benzo[h]quinazolin-4-amine], the IC50 on recombinant human CLK3 stood at 372 nM.
In the case of `COc1ccc2c(c1)/C(=N/OC[C@@H]1CCNC1)C(C)(C)c1c(N)ncnc1-2` [Example 63, (6E)-8-methoxy-5,5-dimethyl-6-[[(3R)-pyrrolidin-3-yl]methoxyimino]benzo[h]quinazolin-4-amine], on recombinant human CLK3, the IC50 is 313 nM.
For `CC(C)O/N=C1\c2cc(O[C@H]3CC[C@H](N)CC3)ccc2-c2ncnc(N)c2C1(C)C` [Example 67, (6Z)-8-(trans-4-aminocyclohexoxy)-6-isopropoxyimino-5,5-dimethyl-benzo[h]quinazolin-4-amine], in the assay with MDA-MB-231 cells, the GI50 is greater than 2000 nM.
Still for that read-out and setting: in the case of `CO/N=C1\c2cc(N(C)C3CCNCC3)ccc2-c2ncnc(N)c2C1(C)C` [Example 69, (6Z)-6-methoxyimino-N8,5,5-trimethyl-N8-(4-piperidyl)benzo[h]quinazoline-4,8-diamine] it was greater than 2000 nM; in that of `CCO/N=C1\c2cc(O[C@H]3CC[C@H](N)CC3)ccc2-c2ncnc(N)c2C1(C)C` [Example 24, (6Z)-8-(trans-4-aminocyclohexoxy)-6-ethoxyimino-5,5-dimethyl-benzo[h]quinazolin-4-amine], 743 nM.
As for `COc1ccc2c(c1)/C(=N\OCC(=O)O)C(C)(C)c1c(N)ncnc1-2` [Example 5, 2-[(Z)-(4-amino-8-methoxy-5,5-dimethyl-benzo[h]quinazolin-6-ylidene)amino]oxyacetic acid], at recombinant human CLK3, the IC50 was found to be 227 nM.
Turning to `CO/N=C1\c2cc(O[C@H]3CC[C@H](N)CC3)cc(Cl)c2-c2ncnc(N)c2C1(C)C` [Example 39, (6Z)-8-(trans-4-aminocyclohexoxy)-10-chloro-6-methoxyimino-5,5-dimethyl-benzo[h]quinazolin-4-amine], in the assay with MDA-MB-231 cells, the GI50 was greater than 2000 nM.

The GI50 is the concentration at which growth is held to half of that of the control. For orientation: IC50 means the concentration needed to halve the response being measured.

Values taken from patent publication US12583825B2, “Benzo[h]quinazolin-4-amine and thieno[3,2-h]quinazolin-4-amine derivatives for the treatment of cancer” (Redona Therapeutics, Inc., priority 2020, dated 2026).
